Assay results taken from patent US20170232083A1, “METHODS OF DIAGNOSIS AND TREATMENT OF CELIAC DISEASE IN CHILDREN” (priority 2014, published 2017).

Legend:
[1] = test system: PBMC (polyclonal gluten-specific T cells) of paediatric and adult CD patients; settings: corresponding adult data shown for comparison (14); cited from earlier work
[2] = test system: PBMC (polyclonal gluten-specific T cells) of paediatric and adult CD patients; test: IFN-γ ELISpot of PBMC after 3 day oral wheat challenge (SFU, % of maximal peptide response, dominance scores, EC50; Examples 5-6); assay type: cell-based, human; settings: for Dominance score 3-5yrs (n = 9): CD children 3-5yrs, n = 9, following wheat challenge; for Dominance score 3-5yrs (n = 9) / Dominance score 6-10yrs (n = 10) / Dominance score 11-18yrs (n = 11): mean percentage of maximal peptide response; for Dominance score 6-10yrs (n = 10): CD children 6-10yrs, n = 10, following wheat challenge; for Dominance score 11-18yrs (n = 11): CD children 11-18yrs, n = 11, following wheat challenge; for Dominance score Mean all ages: CD children, following wheat challenge (Table 9); for Dominance scores 3-5 yrs: children with celiac disease 3-5 yrs after wheat challenge (Table 14); for Dominance scores 6-10 yrs: children with celiac disease 6-10 yrs after wheat challenge (Table 14); for Dominance scores 11-18 yrs: children with celiac disease 11-18 yrs after wheat challenge (Table 14); for Dominance scores Mean all ages: mean of all subjects (Table 14); for IFN-γ ELISpot response: after oral wheat challenge
[3] = patient A, 11-17 yrs, cut-off 10 SFU
[4] = patient D, max peptide 30.5 SFU
[5] = patient E, H, 11-17 yrs, cut-off 10 SFU
[6] = patient F, 11-17 yrs, cut-off 10 SFU
[7] = patient G, 11-17 yrs, cut-off 10 SFU
[8] = patient H (HLA-DQ2.5 homozygote), 3-5yrs, cut-off 10 SFU
[9] = patient H, 11-17 yrs, cut-off 10 SFU
[10] = patient ID not given, 11-17 yrs, cut-off 10 SFU
[11] = patient ID not given, max peptide 95 SFU
[12] = patient N, 3-5yrs, cut-off 10 SFU
[13] = patient P, 11-17 yrs, cut-off 21.6 SFU
[14] = patient Q, 11-17 yrs, cut-off 10 SFU
[15] = patient U, H, 11-17 yrs, cut-off 10 SFU
[16] = patient V, 6-10 yrs, cut-off 10 SFU
[17] = patient Y, 6-10 yrs, cut-off 10 SFU
[18] = patient eleven, 6-10 yrs, cut-off 10 SFU
[19] = patient five, max peptide 48 SFU
[20] = patient seven, 6-10 yrs, cut-off 10.5 SFU
[21] = patient seven, max peptide 27 SFU
[22] = patient ten, 3-5yrs, cut-off 10 SFU
[23] = patient three, 6-10 yrs, cut-off 10.5 SFU
[24] = patient twelve, 11-17 yrs, cut-off 10 SFU
[25] = patient two, 3-5yrs, cut-off 10 SFU
[26] = patient two, max peptide 60 SFU

QPFPQPQQPIPVQ [Peptide W04]
Dominance scores 18+ yrs [1]: 31 | Dominance score 3-5yrs (n = 9) [2]: 44.5 | Dominance score 6-10yrs (n = 10) [2]: 44.2 | Dominance score 11-18yrs (n = 11) [2]: 47.5 | Dominance score Mean all ages [2]: 45.6 | Dominance scores 3-5 yrs [2]: 43 | Dominance scores 6-10 yrs [2]: 44 | Dominance scores 11-18 yrs [2]: 48 | Dominance scores Mean all ages [2]: 45 | IFN-γ ELISpot response [2, 3]: 1 SFU | Significant response as percentage of maximal peptide SFU [2, 4]: ′′ (21-40% = ′′) | IFN-γ ELISpot response [2, 5]: 51 SFU | Significant response as percentage of maximal peptide SFU ([2]; patient E, max peptide 224 SFU): ′′ (21-40% = ′′) | IFN-γ ELISpot response [2, 6]: 40 SFU | Significant response as percentage of maximal peptide SFU ([2]; patient F, max peptide 178 SFU): ′′ (21-40% = ′′) | IFN-γ ELISpot response [2, 7]: 4 SFU | IFN-γ ELISpot response [2, 8]: 9 SFU | IFN-γ ELISpot response [2, 9]: 4 SFU | IFN-γ ELISpot response [2, 10]: 65 SFU | Significant response as percentage of maximal peptide SFU [2, 11]: ′′′ (41-70% = ′′′) | Significant response as percentage of maximal peptide SFU ([2]; patient J, max peptide 196 SFU): ′′′ (41-70% = ′′′) | Significant response as percentage of maximal peptide SFU ([2]; patient K, max peptide 53 SFU): ′′ (21-40% = ′′) | IFN-γ ELISpot response [2, 12]: 5 SFU | IFN-γ ELISpot response [2, 13]: 21 SFU | IFN-γ ELISpot response [2, 14]: 37 SFU | Significant response as percentage of maximal peptide SFU ([2]; patient Q, max peptide 97 SFU): ′′ (21-40% = ′′) | IFN-γ ELISpot response [2, 15]: 30 SFU | Significant response as percentage of maximal peptide SFU ([2]; patient U, max peptide 81 SFU): ′′ (21-40% = ′′) | IFN-γ ELISpot response [2, 16]: 11 SFU | Significant response as percentage of maximal peptide SFU ([2]; patient V, max peptide 35 SFU): ′′ (21-40% = ′′) | IFN-γ ELISpot response [2, 17]: 3 SFU | IFN-γ ELISpot response [2, 18]: 4 SFU | Significant response as percentage of maximal peptide SFU [2, 19]: + (>70% = +) | IFN-γ ELISpot response ([2]; patient four, 3-5yrs, cut-off 10 SFU): 9 SFU | IFN-γ ELISpot response [2, 20]: 13 SFU | Significant response as percentage of maximal peptide SFU [2, 21]: ′′′ (41-70% = ′′′) | IFN-γ ELISpot response [2, 22]: 9 SFU | IFN-γ ELISpot response [2, 23]: 136 SFU | IFN-γ ELISpot response [2, 24]: 12 SFU | IFN-γ ELISpot response [2, 25]: 17 SFU | Significant response as percentage of maximal peptide SFU [2, 26]: ′′ (21-40% = ′′)

W26 (PFPLQPEQPFPQP) [Peptide W26]
Dominance scores 18+ yrs [1]: 0 | Dominance score 3-5yrs (n = 9) [2]: 39.4 | Dominance score 6-10yrs (n = 10) [2]: 61.6 | Dominance score 11-18yrs (n = 11) [2]: 35.0 | Dominance score Mean all ages [2]: 45.8 | Dominance scores 3-5 yrs [2]: 46 | Dominance scores 6-10 yrs [2]: 62 | Dominance scores 11-18 yrs [2]: 35 | Dominance scores Mean all ages [2]: 47

LQPFPQPELPFPQP [Peptide W06]
Dominance scores 18+ yrs [1]: 15 | Dominance score 3-5yrs (n = 9) [2]: 53.1 | Dominance score 6-10yrs (n = 10) [2]: 52.7 | Dominance score 11-18yrs (n = 11) [2]: 53.8 | Dominance score Mean all ages [2]: 53.2 | dominance hierarchy across all age groups ([2]; Example 6): most dominant four peptides | Dominance scores 3-5 yrs [2]: 58 | Dominance scores 6-10 yrs [2]: 53 | Dominance scores 11-18 yrs [2]: 54 | Dominance scores Mean all ages [2]: 54 | IFN-γ ELISpot response [2, 3]: 5 SFU | Significant response as percentage of maximal peptide SFU [2, 4]: ′′′ (41-70% = ′′′) | IFN-γ ELISpot response [2, 5]: 103 SFU | Significant response as percentage of maximal peptide SFU ([2]; patient E, max peptide 224 SFU): ′′′ (41-70% = ′′′) | IFN-γ ELISpot response [2, 6]: 107 SFU | Significant response as percentage of maximal peptide SFU ([2]; patient F, max peptide 178 SFU): ′′′′ | IFN-γ ELISpot response [2, 7]: 7 SFU | IFN-γ ELISpot response [2, 8]: 41 SFU | IFN-γ ELISpot response [2, 9]: 16 SFU | Significant response as percentage of maximal peptide SFU ([2]; patient H, max peptide 17 SFU): + (>70% = +) | IFN-γ ELISpot response [2, 10]: 59 SFU | Significant response as percentage of maximal peptide SFU [2, 11]: ′′′ (41-70% = ′′′) | Significant response as percentage of maximal peptide SFU ([2]; patient II, max peptide 15 SFU): + (>70% = +) | Significant response as percentage of maximal peptide SFU ([2]; patient J, max peptide 196 SFU): ′′′ (41-70% = ′′′) | Significant response as percentage of maximal peptide SFU ([2]; patient K, max peptide 53 SFU): ′′ (21-40% = ′′) | Significant response as percentage of maximal peptide SFU ([2]; patient M, max peptide 48 SFU): + (>70% = +) | IFN-γ ELISpot response [2, 12]: 4 SFU | IFN-γ ELISpot response [2, 13]: 33 SFU | Significant response as percentage of maximal peptide SFU ([2]; patient P, max peptide 64 SFU): ′′′ (41-70% = ′′′) | IFN-γ ELISpot response [2, 14]: 65 SFU | Significant response as percentage of maximal peptide SFU ([2]; patient Q, max peptide 97 SFU): ′′′ (41-70% = ′′′) | IFN-γ ELISpot response [2, 15]: 54 SFU | Significant response as percentage of maximal peptide SFU ([2]; patient U, max peptide 81 SFU): ′′′′ | IFN-γ ELISpot response [2, 16]: 22 SFU | Significant response as percentage of maximal peptide SFU ([2]; patient V, max peptide 35 SFU): ′′′ (41-70% = ′′′) | IFN-γ ELISpot response [2, 17]: 6 SFU | Significant response as percentage of maximal peptide SFU ([2]; patient Z, max peptide 13 SFU): ′′ (21-40% = ′′) | IFN-γ ELISpot response [2, 18]: 43 SFU | Significant response as percentage of maximal peptide SFU ([2]; patient eleven, max peptide 57 SFU): + (>70% = +) | Significant response as percentage of maximal peptide SFU [2, 19]: ′′ (21-40% = ′′) | IFN-γ ELISpot response [2, 20]: 15 SFU | Significant response as percentage of maximal peptide SFU [2, 21]: ′′′ (41-70% = ′′′) | IFN-γ ELISpot response ([2]; patient six, 3-5yrs, cut-off 10 SFU): 12 SFU | Significant response as percentage of maximal peptide SFU ([2]; patient six, max peptide 13 SFU): + (>70% = +) | IFN-γ ELISpot response [2, 22]: 10 SFU | Significant response as percentage of maximal peptide SFU ([2]; patient ten, max peptide 14.5 SFU): + (>70% = +) | IFN-γ ELISpot response [2, 23]: 112 SFU | IFN-γ ELISpot response [2, 24]: 13 SFU | IFN-γ ELISpot response [2, 25]: 26 SFU | Significant response as percentage of maximal peptide SFU [2, 26]: ′′′ (41-70% = ′′′)
